Some test systems named below: 786-0; BT-549; DU-145; EKVX; HCT-15; HOP-62; HOP-92; IGROV-1; KM12; MDA-MB-435; NCI-H226; NCI-H23; NCI-H522; RXF 393; SW-620; T47D; U-251; UACC-257; K562; HL-60.
What all share (assay): inhibition of tumour cell growth, NCI panel, 48 h

These results are taken from ChEMBL document CHEMBL1201862, “PubChem BioAssay data set” (2004).

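Cells were grown in 96-well plates and exposed to each compound for 48 hours at five concentrations; endpoints were interpolated linearly between bracketing concentrations, or set to the highest concentration if not reached. GI50 = concentration required for 50% inhibition of growth.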 Calls of active or inactive are those of the source. No stated cut-off is given here; in the data, active = GI50 up to about 1.1 µM and inactive = higher.

Regarding `O=c1c2ccccc2c2ccccc2c(=O)n1-c1cc2c3ccccc3ccc2c2ccccc12`, the GI50 in the test with 786-0 is > 100 µM (inactive); in the test on BT-549, > 100 µM (inactive); in the test with DU-145, > 100 µM (inactive); with EKVX, > 100 µM (inactive); in the test with HCT-15, above 100 µM; in the test on HOP-62, > 100 µM (inactive). Besides, the GI50 in the test on HOP-92, with IGROV-1, with KM12, with MDA-MB-435, in the test on NCI-H226 and in the test on NCI-H23 was > 100 µM (inactive) each time. The GI50 in the test on NCI-H522, with RXF 393, in the test with SW-620, in the test with T47D, in the test on U-251 and with UACC-257 was > 100 µM (inactive) in each case.
In the case of `N/N=C1\C(OC(=O)Nc2ccccc2)=Nc2ccccc21`, the GI50 was 16.4 µM (inactive) in the test on 786-0; 11.7 µM (inactive) with BT-549; 10.8 µM (inactive) in the test on DU-145; 18.2 µM (inactive) in the test with EKVX; 26.5 µM in the test with HCT-15; 18.6 µM (inactive) in the test on HOP-62. Moreover, the GI50 is 15.2 µM (inactive) with HOP-92; 14.8 µM (inactive) in the test with IGROV-1; 40.3 µM (inactive) in the test on K562; 13.1 µM (inactive) in the test with KM12; 14.4 µM (inactive) with MDA-MB-435; 16.8 µM (inactive) with NCI-H226. Moreover, the GI50 in the test on NCI-H23 was 15.1 µM (inactive); in the test with NCI-H522, 13.7 µM (inactive); in the test with RXF 393 it was 15.4 µM (inactive); in the test on SW-620, 31.9 µM (inactive); in the test on T47D, 10.9 µM (inactive); in the test on U-251 it was 16 µM (inactive). Besides, the GI50 with UACC-257 was 29.7 µM (inactive).
Turning to `O=C(C[N+]12CN3CN(CN(C3)C1)C2)c1ccc(-c2ccccc2)cc1`, the GI50 in the test with 786-0 is 17.7 µM (inactive); with BT-549 it was 29.9 µM (inactive); in the test on DU-145 it was 17.6 µM (inactive); in the test with EKVX, 19.8 µM (inactive); in the test on HCT-15 it was 30.1 µM; in the test on HOP-62, 23 µM (inactive). For the same molecule, the GI50 was 33.5 µM (inactive) with HOP-92; 24.3 µM (inactive) in the test on IGROV-1; 15 µM (inactive) in the test on K562; 32 µM (inactive) in the test on KM12; 36.5 µM (inactive) in the test with MDA-MB-435; 21.2 µM (inactive) in the test with NCI-H226. Besides, the GI50 was 23.3 µM (inactive) in the test on NCI-H23; 19.3 µM (inactive) with NCI-H522; 19.1 µM (inactive) with RXF 393; 8.67 µM (inactive) in the test on SW-620; 37.2 µM (inactive) in the test with T47D; 16.8 µM (inactive) with U-251. Also, in the test with UACC-257, the GI50 was 15.8 µM (inactive).
With `O=C(CCCCCCCCC(=O)N1C(=O)CC(=O)N(c2ccccc2)C1=S)N1C(=O)CC(=O)N(c2ccccc2)C1=S`, the GI50 was > 100 µM (inactive) in the test with 786-0; > 100 µM (inactive) in the test on BT-549; > 100 µM (inactive) with DU-145; > 100 µM (inactive) in the test on EKVX; above 100 µM in the test on HCT-15; > 100 µM (inactive) with HOP-62. Further, the GI50 with HOP-92, in the test with KM12, in the test on MDA-MB-435, in the test on NCI-H23, in the test with NCI-H522 and with RXF 393 was > 100 µM (inactive) each time. The GI50 in the test with T47D, in the test with U-251 and in the test with UACC-257 was > 100 µM (inactive) throughout.
Regarding `O=S(=O)(c1cc(Cl)ccc1Cl)N1CCN(S(=O)(=O)c2cc(Cl)ccc2Cl)CC1`, the GI50 in the test with 786-0 is > 100 µM (inactive); in the test on BT-549, > 100 µM (inactive); in the test on DU-145 it was 16.1 µM (inactive); with HCT-15 it was above 100 µM; in the test with HOP-62, > 100 µM (inactive); with HOP-92 it was > 100 µM (inactive). Besides, the GI50 in the test with IGROV-1 is > 100 µM (inactive); in the test with K562, > 100 µM (inactive); in the test with KM12, > 100 µM (inactive); with MDA-MB-435, > 100 µM (inactive); with NCI-H226, > 100 µM (inactive); with NCI-H23 it was 4.86 µM (inactive). Further, the GI50 with NCI-H522, with RXF 393, in the test on SW-620, in the test with T47D, with U-251 and in the test on UACC-257 was > 100 µM (inactive) each time.
On to `OCCCCn1cc(Cn2ncc3c(SCc4ccccc4)ncnc32)nn1`, for which the GI50 in the test with 786-0 is 63.4 µM (inactive); in the test with BT-549 it was 34.7 µM (inactive); in the test with DU-145, 58.5 µM (inactive); with EKVX, 30.6 µM (inactive); with HCT-15, 28.3 µM; in the test on HOP-62, 44.1 µM (inactive). The GI50 with HOP-92 is > 100 µM (inactive); with IGROV-1, 77.6 µM (inactive); in the test on K562, 38.8 µM (inactive); in the test on KM12 it was 26 µM (inactive); in the test on MDA-MB-435 it was 19.9 µM (inactive); in the test with NCI-H226, 93.5 µM (inactive). For the same molecule, the GI50 with NCI-H23 is 54.2 µM (inactive); with NCI-H522 it was 29.2 µM (inactive); in the test on RXF 393 it was 64.9 µM (inactive); in the test on SW-620 it was 26.7 µM (inactive); with T47D, 32.2 µM (inactive); in the test on U-251 it was 39.2 µM (inactive). In the test with UACC-257, the GI50 was 49.4 µM (inactive).
Turning to `O=S(=O)(Nc1nc2ccccc2nc1Nc1cccc2ccccc12)c1ccccc1`, the GI50 in the test with 786-0 is 17 µM (inactive); with BT-549, 10.4 µM (inactive); with DU-145, > 100 µM (inactive); in the test on EKVX, 8.97 µM (inactive); in the test with HOP-62, 13.9 µM (inactive); in the test with HOP-92 it was 2.7 µM (inactive). For the same molecule, the GI50 is 5.9 µM (inactive) with IGROV-1; > 100 µM (inactive) with K562; 5.61 µM (inactive) with KM12; > 100 µM (inactive) in the test with MDA-MB-435; 40.6 µM (inactive) in the test with NCI-H226; 5.53 µM (inactive) in the test on NCI-H23. In addition, the GI50 is 17.5 µM (inactive) with RXF 393; 25.8 µM (inactive) in the test on SW-620; 5.26 µM (inactive) in the test with T47D; 5.52 µM (inactive) in the test with U-251; 39.4 µM (inactive) with UACC-257.
On to `Cc1cc(Cl)cc2c1NC(=O)/C2=N\Nc1ccccc1[N+](=O)[O-]`, for which the GI50 was 54.6 µM (inactive) in the test with 786-0; > 100 µM (inactive) with BT-549; 78.2 µM (inactive) with DU-145; > 100 µM (inactive) with EKVX; above 100 µM in the test with HCT-15; > 100 µM (inactive) in the test on HL-60. The GI50 was 50.5 µM (inactive) in the test on HOP-62; 27 µM (inactive) in the test with HOP-92; 19.1 µM (inactive) in the test on IGROV-1; > 100 µM (inactive) in the test with K562; > 100 µM (inactive) in the test with KM12; > 100 µM (inactive) with MDA-MB-435. Further, the GI50 was 40.5 µM (inactive) in the test with NCI-H23; > 100 µM (inactive) in the test with NCI-H522; > 100 µM (inactive) in the test with RXF 393; > 100 µM (inactive) with SW-620; > 100 µM (inactive) in the test with T47D; > 100 µM (inactive) in the test with U-251. Moreover, the GI50 in the test with UACC-257 was > 100 µM (inactive).
Regarding `CN(C(=O)C12C3(C(=O)O)C4C5(C(=O)O)C3C1(C(=O)O)C5C42C(=O)O)C(C)(C)C` (stereo unspecified), the GI50 in the test on 786-0 is > 100 µM (inactive); in the test with BT-549, > 100 µM (inactive); with DU-145, > 100 µM (inactive); with EKVX, > 100 µM (inactive); with HCT-15, above 100 µM; in the test with HL-60, > 100 µM (inactive). For the same molecule, the GI50 in the test on HOP-62, in the test on HOP-92, in the test on IGROV-1, in the test on K562, in the test with KM12 and in the test with MDA-MB-435 was > 100 µM (inactive) each time. Besides, the GI50 with NCI-H23, in the test on NCI-H522, in the test with RXF 393, in the test with SW-620, with T47D and in the test with U-251 was > 100 µM (inactive) throughout. The GI50 in the test with UACC-257 was > 100 µM (inactive).
For `Cc1cc(Cl)nc2ccc(Cc3ccc4nc(Cl)cc(C)c4c3)cc12`, the GI50 in the test with 786-0 was 12.2 µM (inactive); with BT-549, 42.2 µM (inactive); in the test with DU-145 it was > 100 µM (inactive); in the test with EKVX, 44.3 µM (inactive); in the test with HCT-15, 49.3 µM; in the test on HOP-62 it was 18.5 µM (inactive). The GI50 in the test on HOP-92 is 43.1 µM (inactive); in the test with IGROV-1 it was 31.7 µM (inactive); with K562 it was > 100 µM (inactive); in the test on KM12, > 100 µM (inactive); with MDA-MB-435 it was 65.2 µM (inactive); in the test on NCI-H226, 93.3 µM (inactive). The GI50 with NCI-H23 was 44.6 µM (inactive); with NCI-H522, 24.2 µM (inactive); with RXF 393 it was 11 µM (inactive); in the test with SW-620 it was > 100 µM (inactive); in the test with T47D, 6.25 µM (inactive); in the test with U-251 it was 16.2 µM (inactive). The GI50 in the test on UACC-257 is 27 µM (inactive).
Take `COc1ccc(Nc2nc3cc(C(F)(F)F)ccc3n3cccc23)cc1OC`: the GI50 with 786-0 is 8.15 µM (inactive); in the test on BT-549 it was 17.3 µM (inactive); in the test on DU-145, 20.3 µM (inactive); with EKVX, 20.3 µM (inactive); in the test on HCT-15, 11.4 µM; in the test on HL-60 it was 19.8 µM (inactive). Further, the GI50 with HOP-62 is 22.3 µM (inactive); with HOP-92 it was 15.7 µM (inactive); with IGROV-1, 25.5 µM (inactive); in the test on K562 it was 9.04 µM (inactive); in the test on KM12, 10.3 µM (inactive); in the test with MDA-MB-435, 15.7 µM (inactive). Besides, the GI50 in the test on NCI-H23 was 17.6 µM (inactive); with NCI-H522, 16 µM (inactive); in the test with RXF 393, 10.8 µM (inactive); in the test on SW-620 it was 34.7 µM (inactive); in the test with T47D it was 6.37 µM (inactive); in the test with U-251 it was 15.2 µM (inactive). Also, the GI50 with UACC-257 was 17.5 µM (inactive).
